In a melting point compilation (Tetko et al.; mined from patent text by program, amines drawn as free bases though some values may be those of a salt):

melting point [°C]	SMILES
199 to 201	CCc1cc(CCc2nc3ccccc3o2)c(=S)[nH]c1C
94 to 97	COc1cnc(CSc2nc3cc(OC(F)(F)F)ccc3[nH]2)c(C)c1OC
95 to 97	CC(=O)CSc1ccc(S(C)(=O)=O)cc1
200 to 201	Cc1cccc(C)c1C#CCOCCn1cnc2c(N)nc3ccccc3c21
198 to 200	CS(=O)(=O)c1ccc(-c2[nH]c3ccccc3c2-c2ccc(Cl)cc2)cc1
115 to 116	COc1ccc(NC(=O)/C=C/c2ccc(C(C)(C)C)cc2)cc1OC
165 to 167	Cc1nc2c(-c3cccc(N4CCOCC4)c3)cnn2c(N)c1-c1cccc(Cl)c1
195 to 200	Cc1nc(N)nc(N)c1C=CC(C)(C)c1ccc(Cl)cc1
68.5 to 70	CCc1cccc(C)c1NC(=O)C(C)N (stereo not given)
73 to 75	CCCCCCCCCCCCCCCCCC(=O)OC(CO)CO
101	CCCN(CCC)C(=O)c1cc2ccccc2c(-c2ccccc2Cl)n1
163 to 165	COc1ccc2ncc([N+](=O)[O-])c(Nc3ccccc3Cl)c2c1
264	O=C(NC(=O)c1c(Cl)cccc1OCc1ccccc1)Nc1ccc(C(F)(F)F)cc1
92.1	COC(=O)Nc1ccc2ccccc2c1-c1c(P(c2ccccc2)c2ccccc2)ccc2ccccc12
169 to 170	CC(C)(O)Cn1cnc2cnc3ccccc3c21
155	COc1ccc2c(c1)c(=O)oc(=O)n2-c1ccc(OCc2ccccc2)cc1
215 to 218	O=C(Nc1cccc2c(=O)cc(C(=O)O)oc12)c1ccc2oc(COCc3ccccc3)cc2c1
174 to 176	O=C(NCc1ccccc1)c1ccnc(NC(=O)c2ccccc2)c1
83 to 85	CCN(CC)CCNC(=O)c1c2ccccc2nc2ccc(I)cc12
105 to 108	CCN(CC)c1ccc(C(=O)Cn2ncc(-c3ccc(S(C)(=O)=O)cc3)c(-c3ccc(F)cc3)c2=O)cc1
151 to 152	Cc1c(-c2ccccc2F)[nH]c(NCc2ccccc2)c1C#N
108	OCCSC(=S)Nc1ccc(Cl)cn1
144 to 145	CCCCCCn1c(=O)[nH][nH]c1=O
> 295	CCCn1c(=O)[nH]c(=O)c2[nH]c(/C=C/c3ccccc3)nc21
173 to 175	COc1ccc(CNc2cc(-c3cc4cc(F)c(F)cc4[nH]3)ccc2OC)cc1

melting point [°C]	SMILES
180 to 182	COc1cccc(CC(N)C(=O)O)c1OCCc1ccccc1 (racemic)
181 to 185	CC1=NC(NC(=O)Nc2cccc(Cl)c2)C(=O)N(CC(=O)N2CC3CCC(CC3)C2)c2c(C)cccc21 (stereo not given)
208 to 209	O=c1nc(-c2cccc(CO)n2)sc2ccccc12
95	O=Cc1cncc(Br)c1
107 to 109	CON1C(=O)CC12C=CC(=O)C=C2
205 to 207	O=C(NCc1ccncc1)c1ccnc(N2CCN(Cc3ccc(F)cc3)C2=O)c1
169 to 170	COc1ccc(-c2c(CO)[nH]c3cc(OC)c(OC)cc23)cc1
90 to 92	CC(O)CN(CCc1ccc(Nc2ncc3c(n2)-c2ccccc2C(c2cccc(Br)c2)C3)cc1)Cc1ccccc1 (stereo not given)
176 to 178	C#CCNC1=NS(=O)(=O)N=C1NCCSCc1csc(NC(=N)N)n1
148	Cc1cc(C)n(O)c(=O)c1Cc1ccccc1
137 to 140	O=C(Cc1cccc2ccccc12)N1CC=C(c2cccc(C(F)(F)F)c2)CC1
188 to 190	O=C(O)Cc1cc(Cl)cc2c(-c3ccccc3)onc12
175 to 178	CO/N=C1\CCc2ccccc2C1=Cc1ccc(S(C)(=O)=O)cc1
88 to 89	CC(=O)c1cccc(C)c1NC(=O)CCl
243 to 245	CCc1sc2nc(C(=O)O)cn2c1C
197	O=C(Nc1ccc(F)c(NC(=S)Nc2cc(Cl)cc(Cl)c2)c1)c1ccc(F)c(F)c1
159 to 160	CCc1nn(CC(N)=O)c(CC)c1Oc1cccc(C#N)c1
246 to 248	Cn1c(-c2ccccc2)nc2ncnn2c1=S
164 to 167	Clc1ccc(-c2cc(C3CCN(Cc4ccccc4)CC3)n[nH]2)cc1
166 to 169	CC(=O)N(C)c1cccc(-c2ccc3nncn3n2)c1
75	CS(=O)(=O)c1ccc2c(c1)C1(O)C(C2)SC(=Nc2ccccc2)N1c1ccccc1 (stereo not given)
113 to 115	COCn1nc(-c2cc(C(C)(C)C)c(O)c(C(C)(C)C)c2)c2cccnc21
202	CNN(NC)C(=O)Nc1cccc2c1C(=O)c1c-2n[nH]c1-c1ccsc1
70	CC(=O)C(=CC(=O)O)c1ccccc1
139 to 141	O=C(O)C1Cc2ccc3ccccc3c2C1 (single isomer, unassigned; (-))

melting point [°C]	SMILES
137	COC(=O)CCCc1cc2nc(C(F)(F)F)ccc2[nH]1
55 to 57	CC1(C)OCC(CN2C(=O)C3(COc4cc5c(cc43)OCCO5)c3ccccc32)O1 (stereo not given)
166	Nc1ccc2ccc(Oc3ccccc3Cl)nc2n1
163 to 165	CSc1nn2c(Cl)cc(C)nc2c1S(=O)(=O)c1ccccc1
107	c1ccc2c(c1)C[C@@H]1c3ccccc3N[C@H]21 (relative stereo)
160 to 161	CCOC(=O)c1ccc(N(CCOc2ccc(C(C)=O)c3ccccc23)C(=O)C(F)(F)F)cc1
144 to 146	OC(CCn1ccnc1)c1ccc2c(c1)Cc1ccccc1-2 (stereo not given)
110	CN(C)CC(Cc1ccccc1)NC(=O)c1ccccc1 (stereo not given)
241 to 242	CC1CC2C3CC(F)C4=CC(=O)C=CC4(C)C34OC4CC2(C)C1(O)C(=O)CO (stereo not given)
263 to 266	Cn1nc(-c2ccc(C(=N)N)cc2)cc(C(=O)N[C@H]2CC[C@H](C(=O)O)CC2)c1=O
131 to 132	Oc1cnc(N2CCN(CCCCn3cc(Cl)cn3)CC2)nc1
230 to 233	O=C(Nc1ccc(Cl)c(Cl)c1)c1ccccc1SSc1ccccc1C(=O)Nc1ccc(Cl)c(Cl)c1
136 to 138	Cn1c(C(F)(F)F)cc(=O)n(-c2cc(OCC(F)(F)F)c(Cl)cc2F)c1=O
47 to 49	CCOC(=O)[C@H](Cc1ccc(OS(=O)(=O)C(F)(F)F)cc1)NC(=O)OC(C)(C)C
81 to 83	CCCCCCSC(=O)CS(=O)(=O)Nc1c(C(C)C)cccc1C(C)C
116 to 119	O=C(O)Cc1ccc(OCCc2ccccc2)c(OCc2ccccc2)c1
146 to 148	CC(=O)NC[C@H]1CN(c2ccc(C3=CN(C(=O)COC(C)=O)CCC3)c(F)c2)C(=O)O1
58 to 65	O=C(CCNC(=O)c1ccccc1C(=O)O)NO
207 to 210	CCCC(=O)Nc1cc(/C=C/C(=O)N2CC(CCl)c3ccc(NC(=O)OCc4ccc([N+](=O)[O-])cc4)cc32)n(C)c1 (stereo not given)
82 to 84	C=C(C)COc1ccc2c(=O)c(C)c(-c3ccccc3)oc2c1C(=O)C=Cc1cc(OC)c(OC)c(OC)c1
105 to 107	CC(C)(C)c1cc(CN(c2cccnc2)S(=O)(=O)c2ccccc2Br)cc(C(C)(C)C)c1O
249 to 251	CCc1c(-c2ccc(OC)cc2)c2c3c(c4cc(OC)cc1n42)C(=O)OC3=O
203 to 206	CC(=O)NC1CCc2c([nH]c3ccccc23)C1 (stereo not given)
85 to 90	C=CCC(O)(C(=O)c1ccccc1)c1ccccc1 (stereo not given)
146 to 147	NC(=O)N(O)CCNC(=O)c1cccc(Oc2ccc(Cl)cc2)c1

melting point [°C]	SMILES
123 to 126	CCCOc1ccccc1-c1nc2c(C=CCc3ccccc3)cccc2c(=O)[nH]1
167 to 168	Cc1nnc(-c2ccc3occ(-c4ccc(C(=O)N5CCOCC5)c(F)c4)c3c2)o1
88 to 91	CCc1c(C)c(=O)n(-c2cc(OC(C)C)c(Cl)cc2F)c(=O)n1C
105 to 106	COc1ccc(C=Cc2cc(Cl)c(OC)c(OC)c2)cc1O
193 to 195	O=C(NCc1ccc(Cl)cc1)c1cnc2c(F)cc(CCCCCO)cc2c1O
98 to 99	CCOC(=O)/C=C/c1c(C)nn(Cc2ccc(OCc3nc(-c4ccccc4)oc3C)cc2)c1C
56 to 59	COC(=O)COc1ccc(C(=O)CN(C)C(=O)OCc2ccccc2)cc1OCC(=O)OC
189 to 192	CCN(CC)c1cc2c(cc1C)Nc1c(cc(NC(=O)c3ccc(OC)cc3)c3ncn(-c4ccc(OC)cc4)c13)O2
85.5 to 87.5	Cc1ccccc1-c1cc(C(C)(C)C)c(O)c(C(C)(C)C)c1
277 to 278	CC(C)(C)c1cc(C(=O)Nc2ccc([N+](=O)[O-])cc2)cc(C(C)(C)C)c1O
173 to 175	Cc1nc(N2CCN(Cc3ccc(F)cc3)C2=O)sc1C(=O)NCc1cnn(C)c1
209 to 210	Cc1cc(-c2nc3cc(Cl)cc(Cl)c3c(=O)[nH]2)cc(C)c1OCCN1CCCC1
290	O=C(Nc1nccs1)c1cn(-c2ccccc2)c2ccccc2c1=O
120 to 122	COCCc1ccc(OCC(O)C(C)(C)N)cc1 (stereo not given)
166 to 167	COCCOc1cc(N)c(S(C)(=O)=O)cc1[N+](=O)[O-]
208 to 210	COc1cc(C=NO)c2oc(-c3ccc(OC)c(F)c3)cc2c1
109 to 110	COc1ccc2c(c1)C(=O)N(c1ccc(C(C)C)cn1)C2
131 to 132	CCOC(=O)Cc1nn(Cc2nc3cc(C(F)(F)F)ccc3s2)c(=O)c2ccccc12
204 to 205	CCOc1nsc(NC(=O)N(C)C)c1C#N
244 to 247	CCCC(=O)c1c[nH]c2ccsc2c1=O
106 to 107	COCOc1nn(-c2ccccc2)cc1C=O
59 to 62	O=C(O)C(=O)c1cccc(Cl)c1

SMILES	melting point [°C]
CC(C)N1CCC(C(C#N)(c2ccccc2)c2ccccc2)C1 (stereo not given)	73 to 74
CC(C)(NC(=O)c1cc2c(n(CC3CCCCC3)c1=O)CCCCCC2)C(=O)O[C@H]1CO[C@H](c2ccccc2)OC1	166 to 168
ON=C1CN2[C@H]3CC[C@@H]2[C@@H]1[C@@H](c1ccc(Cl)c(Cl)c1)C3	45 to 52
